{"source": "patent US9707244B2", "about": "“Compositions and methods for treating conditions that affect epidermis” (Gencia Corporation, priority 2013, dated 2017)", "key": {"[1]": {"system": "EpiDerm Full Thickness 400 (EFT-400) tissues", "test": "Mattek full-thickness skin model (EFT-400) skin thickness", "assay_type": "cell-based", "settings": "25 nM with corticosteroid, 14 days; on average; p<0.001", "procedure": "Following the protocol of Schoepe, we used the FTSM model to determine if co-treatment with Mitocreatine would reduce the loss in skin thickness produced by glucocorticoids.\n2.5 mL of EpiDerm Full Thickness 400 (EFT-400) medium was dispensed into each well of the four 6-well plates aseptically in the tissue culture hood. The plates containing the EFT-400 tissues were removed from their plastic packaging and transferred using sterile forceps into the 6-well plates containing the 2.5 mL of EFT-400 media, making sure that no agarose adheres to the insert and that the media makes full contact with the underside of the tissue insert membrane (no air bubbles under the insert). The apical surface of the tissue should remain exposed to air (no media should be added to the side of the insert).\nThe tissues were equilibrated overnight at 37° C., 5% CO2. Treatment conditions are listed below in Table 5.\nDay 2-13: The plates were visually examined and the media containing the test compounds was replenished each day.\nDay 15: The inserts were dislodged from the support and the tissue carefully removed from the support with a scalpel.\nThe tissues were placed in 50 mL conical tubes containing 10% phosphate buffered formalin and sent for sectioning, histological processing and H&E staining Slides were visualized using a Leica Stereoscope equipped with a digital camera. Images were acquired and measured using ExoLabs software. Data was tabulated in Excel and the results were analyzed."}, "[2]": {"system": "ARPE-19 cells, a retinal pigmented epithelial cell line", "test": "WST-1 cell viability in senescent ARPE-19 cells", "assay_type": "cell-based, human", "settings": "up to 1 uM; twenty-four hours after treatment", "procedure": "In the present invention ARPE-19 cells were used to evaluate whether Mitocreatine improves mitochondrial parameters and reduces ROS in a cell model of AMD. The cells were prematurely senescenced according to the protocol of Glotin et al. (2008). […] Cells were plated in a 96 well plate for analysis of WST-1 bioreduction, a formazan based dye similar to MTT whose bioreduction is largely dependent on the glycolytic production of NAD(P)H in viable cells and is routinely used to monitor cell viability."}, "[3]": {"system": "AG16409 untransformed human skin fibroblasts from a person", "test": "Cellular senescence assay (SA-β-Gal fluorometric), young fibroblasts", "assay_type": "cell-based", "settings": "increasing concentration", "text": "(§1) Senescent cells show common biochemical markers such as expression of an acidic senescence-associated β-galactosidase (SA-β-Gal) activity. While senescence has been characterized primarily in cultured cells, there is also evidence that it occurs in vivo. Cells expressing markers of senescence such as SA-β-Gal have been identified in normal tissues. To determine whether modified Mitocreatine analogues may influence the scenesence in aged fibroblasts, a 96-well Cellular Senescence Assay (SA-β-Gal Fluorometric Format) Cat # CBA-231 Cell Biolabs, Inc. was employed and buffers referenced were supplied by the manufacturer and in some cases freshly prepared prior to usage according to the manufacturer's instructions.\n(§2) The cells utilized were Human Skin Fibroblast acquired from Coriell Cell Repository. The cell line AG11073 is untransformed human skin fibroblasts from a person. The primary culture was initiated from explants of a 2 mm-punch biopsy. The cell line AG16409 was untransformed human skin fibroblasts from a person.\n(§3) Cells were grown in a 96 well plate. […]\n(§4) 50 μL, of the reaction mixture was removed to a 96-well plate suitable for fluorescence measurement. The reaction was stopped by adding 200 μL of Stop solution and fluorescence was measured with a fluorescence plate reader (PHERA Star FS from BMG Labtech) at 360 nm (Excitation)/465 nm (Emission)."}, "[4]": {"system": "AG11073 untransformed human skin fibroblasts from a person", "test": "Cellular senescence assay (SA-β-Gal fluorometric), aged fibroblasts", "assay_type": "cell-based", "settings": "5 nM to 200 nM, p<0.01 for 5-100 nM, p<0.05 for 200 nM", "text": "as §1, §2, §3, §4"}, "[5]": {"test": "RIPT (Repeat Insult Patch Test) study", "assay_type": "in vivo, human", "settings": "0.1% topical formulation"}, "adult participants": {"system": "adult participants", "test": "Double-blind, randomized, placebo-controlled study of 0.1% Mitocreatine lotion on the dorsum of the hand", "assay_type": "in vivo, human", "procedure": "This was followed by a double-blind, randomized, placebo-controlled safety and efficacy trial of 0.1% once-daily topical application of mitocreatine to the dorsum of hands. […]. After obtaining informed consent, participants were interviewed by a physician for screening for history of skin disease, allergy and general medical issues. An initial evaluation of skin on the dorsum of the hand was performed. Qualifying participants were issued the test articles and self-assessment forms, and instructed to apply the “Right hand” and “Left hand” vial contents to the dorsum of respective hands once daily, preferably in the evening. Participants were allowed the use of other cosmetics. Once a week the participants filled out the self-assessment forms as instructed during the initial evaluation. The questions in the forms pertained to comparisons of wrinkling, color, pigmented lesions, hydration, roughness and elasticity of skin between right and left hand. One question also elicited the subjective overall impression of skin appearance (better vs. worse) between the hands. […] The participants and the evaluator were blinded to the treated side until after the exit evaluation was finished.\nBefore the start of study a set of 30 consecutively numbered pairs of bottles containing drug or placebo creams was generated. Of these 30 pairs of bottles 15 pairs treated the right side treated and 15 pairs treated the left side with the drug. The order of right vs. left treatment pairs was random. Participants were assigned a number in the order of recruitment. 17 subjects participated in the study, whereof 15 completed the study. Two subjects dropped out of the study due to non-study related causes. Of the 15 remaining individuals, 9 had their right hand treated whereas 6 had their left hand treated. Data from initial and exit evaluations and self-report forms were tabulated and analyzed using Fisher's exact test and Pearson's chi-squared test. Skin on the dorsum of participants' hands was evaluated by a physician at the initial evaluation and at the conclusion of the study. None of the volunteers had lesions disqualifying from participation (neoplasm, large vascular lesions, wounds, burns, large scars).\nThe weekly self-report forms included questions about the following adverse outcomes: itching, redness, pain, swelling, blistering, other discoloration, skin cracking and dryness. Participants were also provided with a contact number and instructed to immediately report any of the listed or other worrisome events."}}, "note": "“Also recorded” adds a separate entry of the source.", "data": [{"smiles": "CN(CC(=O)NCCC[P+](c1ccccc1)(c1ccccc1)c1ccccc1)C(=N)N.Cl.[Cl-]", "note": "[Mitocreatine, N^2-[ammonio(imino)methyl]-N^2-methyl-N-[3-(triphenylphosphonio)propyl] glycinamide dichloride]", "values": [{"measurement": "improvement of skin thickness", "setting": "[1]", "result": 50, "unit": "%"}, {"measurement": "cell viability (WST-1)", "setting": "[2]", "result": "does not negatively impact cell viability"}, {"measurement": "β-galactosidase expression/activity (senescence marker)", "setting": "[3]", "result": "this decrease failed to reach statistical significance; also recorded: statistically insignificant decrease"}, {"measurement": "β-galactosidase expression/activity (senescence marker)", "setting": "[4]", "result": "statistically significant decrease; also recorded: retards senescence"}, {"measurement": "allergenicity in RIPT", "setting": "[5]", "result": "hypoallergenic"}, {"measurement": "adverse outcomes reported by participants", "setting": "adult participants; 0.1% lotion once daily, four weeks", "result": "No adverse outcomes"}, {"measurement": "pathological changes noted by the evaluating physician", "setting": "adult participants; 0.1% lotion once daily, final follow-up visit", "result": "No pathological changes"}, {"measurement": "participants who correctly identified the treated hand", "setting": "adult participants; 13/15, p=0.0074 by binomial test", "result": 87, "unit": "%"}, {"measurement": "participants with improvement in wrinkles", "setting": "adult participants; drug hand, 7/15, p=0.0033", "result": 45, "unit": "%"}, {"measurement": "participants with an improvement in general skin health", "setting": "adult participants; drug hand, 11/15, p=0.00025", "result": 73, "unit": "%"}, {"measurement": "participants with improvement in thickness", "setting": "adult participants; drug hand, 13/15, p=0.0029", "result": 87, "unit": "%"}, {"measurement": "participants with improvement in tightness", "setting": "adult participants; drug hand, 13/15, p=0.019", "result": 87, "unit": "%"}, {"measurement": "participants reporting an improvement in at least two measures", "setting": "adult participants; drug hand, 14/15, 0.1% lotion, four weeks, p=0.0142", "result": 93, "unit": "%"}]}]}
